Ends that are not written are not given here.
Legend:
[1] = test system: human red blood cells; test: Haemolytic activity; format: cell-based; conditions: human RBC, CTAB control
Description: (§1) Fresh human red blood cells (RBC) (Cambridge Bioscience, UK) and defibrinated sheep erythrocytes (Oxoid Ltd. Hampshire, UK) were washed 3 times with PBS, centrifuged for 5 min at 500 rpm between each wash and resuspended to 4% (v/v) in PBS. […] The percentage of haemolysis was calculated according to the equation: (A450 peptide solution − A450 PBS)/ (A450 0.1% Triton X-100 − A450 PBS) × 100. The therapeutic index (T.I.) was calculated as the ratio of the minimum haemolytic concentration ((MHC)- causing 5% haemolysis to human erythrocytes) to the minimum inhibitory concentration (MICGM+) [46]. The MICGM+ was the minimum inhibitory concentration of the peptide against Gram-positive bacterial strains after the geometric mean was calculated.

[2] = test system: sheep erythrocytes; test: Haemolytic activity; format: cell-based; conditions: for haemolysis of sheep erythrocytes: 1 h; for Haemolytic activity (Minus PBS/average positive*100): sheep erythrocytes
Description: as §1

[3] = test system: S. aureus strains; format: cell-based, Staphylococcus aureus
[4] = test system: drug resistant A. baumannii isolates; format: cell-based, Acinetobacter baumannii
Description: MICs against a range of clinically important Gram-positive and Gram-negative bacteria strains including methicillin-sensitive Staphylococcus aureus (MSSA) RN4220 epidemic methicillin-resistant S. aureus-15 (EMRSA-15), methicillin-resistant S. aureus USA300 (MRSA USA300), Bacillus cereus, Enterococcus faecalis JH2–2, Escherichia coli K12, Salmonella enterica serovar Typhimurium SL1344, P. aeruginosa PAO1, and hospital isolates of Acinetobacter baummannii were determined in quadruplicate by a modified microdilution broth method [64] with a final bacterial inoculum concentration of 5 × 10^5 CFU/mL utilised as the test organisms. Cation-adjusted Mueller Hinton (MH) broth was innoclated overnight with a single colony of the tested microorganisms, subsequently grown for 16–24 h with shaking at 225 rpm, and further diluted in the same broth to a final concentration of 5 × 10^5 CFU/mL. The bacterial suspension was added to sterile U-bottomed 96-well plates, and the peptides and control antibiotics to be tested were dissolved in sterile distilled water and serially diluted in the wells. The MICs were recorded as the lowest peptide concentration that inhibited growth after incubation for 18 h [65]. […]

Row | Molecule | Haemolytic [1] | haemolysis of sheep erythrocytes ([2]; 16 μg/mL) | haemolysis of sheep erythrocytes ([2]; 24 μg/mL) | Haemolytic activity (Minus PBS/average positive*100) ([2]; 1x MIC, mean) | Haemolytic activity (Minus PBS/average positive*100) ([2]; 1x MIC, replicate 1) | Haemolytic activity (Minus PBS/average positive*100) ([2]; 1x MIC, replicate 2) | Haemolytic activity (Minus PBS/average positive*100) ([2]; 1x MIC, replicate 3) | Haemolytic activity (Minus PBS/average positive*100) ([2]; 1x MIC, replicate 4) | Haemolytic activity (Minus PBS/average positive*100) ([2]; 2x MIC, mean) | Haemolytic activity (Minus PBS/average positive*100) ([2]; 2x MIC, replicate 1) | Haemolytic activity (Minus PBS/average positive*100) ([2]; 2x MIC, replicate 2) | Haemolytic activity (Minus PBS/average positive*100) ([2]; 2x MIC, replicate 3) | Haemolytic activity (Minus PBS/average positive*100) ([2]; 2x MIC, replicate 4) | Haemolytic activity (Minus PBS/average positive*100) ([2]; 3x MIC, mean) | Haemolytic activity (Minus PBS/average positive*100) ([2]; 3x MIC, replicate 1) | Haemolytic activity (Minus PBS/average positive*100) ([2]; 3x MIC, replicate 2) | Haemolytic activity (Minus PBS/average positive*100) ([2]; 3x MIC, replicate 3) | Haemolytic activity (Minus PBS/average positive*100) ([2]; 3x MIC, replicate 4) | MIC against S. aureus strains [3] | MIC against drug resistant A. baumannii isolates [4]
1 | CCCCCCCCCCCCCCCC[N+](C)(C)C.[Br-] [CTAB] | 100 |  |  |  |  |  |  |  |  |  |  |  |  |  |  |  |  |  |  | 
2 | GIVAWFWRLAR [Lubelisin] |  | ~20% | ~30% | 12.8836 | 12.4097 | 12.5903 | 11.8682 | 14.6661 | 18.8177 | 17.1029 | 22.6986 | 19.9007 | 15.5686 | 33.7319 | 34.2509 | 33.1679 | 33.7094 | 33.7996 | 8 mg/L | 128 mg/L

Source: PMC8034185, “The rumen eukaryotome is a source of novel antimicrobial peptides with therapeutic potential” (BMC Microbiology, 2021)
